Test results: patent US12414972B2 (University of South Florida, priority 2021, dated 2025)

Experiments:
miR101a-3p promoter = test: Promoter luciferase assay in Caco-2 cells; type: cell-based, Human
Method: Promoter luciferase assay. Caco-2 cells were seeded onto a 96-well plate at a density of 2×10^4 cells/well and transfected with miR101a-3p promoter pMK-RQ (KanR) reporter vector of 4 different nucleotide sequence (−1 to −500, −1 to −1000, −1 to −1500 and −1 to −2000) from its TSS (Transcription start site) and pMK-RQ (control vector using Lipofectamine 3000 transfection kit (Invitrogen). The TSS of miR101a-3p is located at position: chr1 65067704 (genome version hg38) as reported earlier. (Huang et al., 2017). The cells were collected at various time point (0, 1, 3, 5, 7 and 10 hrs) after transfection. The expression level of the firefly luciferase reporter gene was measured using Pierce Firefly Luciferase Glow Assay Kit.

mice gut = test: Oral administration of ethanolamine in mice; type: in vivo
Source text: (§1) RNA isolation and gene expression analyses.
(§2) miRNA profiling and expression analyses.

Caco2 cells = test: Ethanolamine treatment of Caco2 cells, expression analyses; type: cell-based, Human
Source text: as §1, §2

enteroids = test: Ethanolamine treatment of enteroids, expression analyses; type: cell-based, mouse
Method: Enteroids development and treatments. To develop mouse enteroids, entire small intestine was collected from mice and flushed with pre-cooled Dulbecco's phosphate buffered saline (DPBS). The lengthwise cut-opened ileum was washed with cooled PBS and fragmented into 2 mm small pieces, then transferred to a 50-ml conical flask containing cleaned pre-cooled PBS. Tissue fragments were incubated in the 25 ml of pre-warmed Trypsin (Gibco) on a rocking platform for 15 minutes. After removing the trypsin, tissue pieces were washed with 10 ml pre-cold PBS with 0.1% bovine serum albumin and filtered in a 50 ml conical tube through a 70 μm cell strainer (Falcon). These pieces were then centrifuged at 290×g for 5 min at 4° C., and the intestinal crypt-containing pallets were suspended in the 10 mL cold DMEM: F-12 (Gibco) and centrifuged at 500×g for 10 minutes followed by resuspending in 150 μL IntestiCult Organoid Growth Medium (StemCell) with […] gentamicin (Gibco). The Matrigel Matrix (Corning) was added to the suspension and the mixture of 50 μL was used to form a dome at the center of a prewarmed 24-well culture plate and incubated at 37° C. and 5% CO2 for 30 minutes to allow the Matrigel to set. To maintain the cultures, the IntestiCult Organoid Growth Medium was changed three times/week, and images were captured by from day 1 to 12. […] The organoids were harvested after 2 days of treatment(s) for miRNA, mRNA, and protein analyses. Experiments were repeated three times.
as §1, §2

Caco-2 cell monolayers = test: Transepithelial electric resistance (TEER) assay in Caco-2 cell monolayers; type: cell-based, Human; conditions: ethanolamine treatment, up to 8 hrs
Method: Transepithelial electric resistance (TEER) assay in Caco-2 cell monolayers. Human intestinal epithelial Caco-2 cells (American Type Culture Collection) were seeded on apical chamber made of polyester membrane filters with 0.4 μm pore size of 12-well transwell plates (Costar) at a density of 3×10^5/well. The culture medium from both apical and basolateral compartment were changed every two days. The cells were allowed to fully differentiate for 21 days; and fully differentiated cells were challenged with FCM and metabolites for next 8 hours with continuous measuring of TEER values, using an EVOM2 Epithelial Voltometer (WPI) according to the manufacturer's instruction. The blank inert resistance value (the insert with only culture media) was subtracted from the measured resistance value of each sample and final resistance in ohm×cm2 was calculated by multiplying the sample resistance by the area of the membrane.

[1] = oral, 100 mg/kg body weight, one dose, vs non-treated controls
[2] = among top 6 selected metabolites

## NCCO [ethanolamine]
miR101a-3p promoter; vector carrying −1 to 500 bp fragment
  miR101a-3p promoter activity: no change
miR101a-3p promoter; vector carrying −1 to 1500 bp fragment
  miR101a-3p promoter activity: significantly increased
miR101a-3p promoter; vector carrying −1 to −1000 bp fragment
  miR101a-3p promoter activity: significantly increased
miR101a-3p promoter; vector with −1 to −2000 bp of TSS vs empty vector
  miR101a-3p promoter luciferase activity: increased
Mice gut; ethanolamine treatment
  expression of miR101a-3p in the colon of mice: significantly increased
  expression of miR101a-3p in the ileum of mice: significantly increased
Mice gut; ethanolamine treatment in mice vs controls
  expression of inflammatory markers (IL-1 β, IL-6 and TNF α) in the intestine (ileum): significantly increased
Mice gut; ethanolamine treatment vs controls, FIG. 5N
  expression (Arid3a) in mouse intestine: significantly increased
Mice gut; oral, 100 mg/kg body weight, one dose, mice
  leaky gut (FITC-dextran assay): significantly increased
Mice gut; [1]
  expression of (Tjp1) mRNA in the colon: significantly reduced
  expression of (Tjp1) mRNA in the ileum: significantly reduced
  expression of (Tjp1) protein in the ileum: significantly reduced
Caco2 cells; FIG. 12C, Caco2 culture experiments
  expression of inflammatory markers like IL-1, IL-6, and TNF-α: significantly reduced
Caco2 cells; [2]
  expression of Tjp1 mRNA in the Caco2 cells: most dramatically reduced
Caco2 cells; ethanolamine treatment
  expression of miR101a-3p in Caco2 cells: significantly increased
Caco2 cells; ethanolamine treatment vs controls, FIG. 5M
  expression (Arid3a) in Caco2 cells: significantly increased
enteroids; [2]
  expression of Tjp1 mRNA in the enteroids: most dramatically reduced
enteroids; ethanolamine treatment
  expression of Arid3a in the enteroids: significantly increased
  expression of miR101a-3p in enteroids: significantly increased
Caco-2 cell monolayers
  TEER in the monolayers of Caco2 cells: reduced
